According to ChEMBL document CHEMBL1145277, “Discovery of 3,3-dimethyl-5-hydroxypipecolic hydroxamate-based inhibitors of aggrecanase and MMP-13” (Bioorg Med Chem Lett, 2005):

What was measured:
[1] = system: Cell line; experiment: Inhibitory concentration against TNF-alpha release in LPS-stimulated human whole blood; format: functional, cell-based
[2] = molecular target: T1, Interstitial collagenase (Homo sapiens, UniProt P03956); experiment: Inhibitory concentration against Matrix metalloprotease-1 (MMP-1)
T1 sequence (P03956 whole entry): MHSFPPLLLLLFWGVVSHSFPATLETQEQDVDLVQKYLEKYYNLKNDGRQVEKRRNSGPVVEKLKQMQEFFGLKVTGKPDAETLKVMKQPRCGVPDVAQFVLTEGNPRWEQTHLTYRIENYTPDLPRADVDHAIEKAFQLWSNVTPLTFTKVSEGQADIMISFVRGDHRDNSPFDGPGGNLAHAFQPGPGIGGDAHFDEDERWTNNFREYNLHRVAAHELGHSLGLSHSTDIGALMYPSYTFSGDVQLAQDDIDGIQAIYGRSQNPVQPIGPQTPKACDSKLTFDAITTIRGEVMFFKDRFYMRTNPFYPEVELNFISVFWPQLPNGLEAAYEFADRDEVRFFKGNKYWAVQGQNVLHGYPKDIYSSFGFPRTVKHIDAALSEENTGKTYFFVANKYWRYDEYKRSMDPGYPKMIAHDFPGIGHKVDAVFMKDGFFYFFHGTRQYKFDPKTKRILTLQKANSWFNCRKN

[3] = molecular target: Disintegrin and metalloproteinase domain-containing protein 17 (Homo sapiens, UniProt P78536); experiment: Inhibitory concentration against TNF-alpha converting enzyme
Chain of Disintegrin and metalloproteinase domain-containing protein 17 (P78536 whole entry, the tested form may be a part): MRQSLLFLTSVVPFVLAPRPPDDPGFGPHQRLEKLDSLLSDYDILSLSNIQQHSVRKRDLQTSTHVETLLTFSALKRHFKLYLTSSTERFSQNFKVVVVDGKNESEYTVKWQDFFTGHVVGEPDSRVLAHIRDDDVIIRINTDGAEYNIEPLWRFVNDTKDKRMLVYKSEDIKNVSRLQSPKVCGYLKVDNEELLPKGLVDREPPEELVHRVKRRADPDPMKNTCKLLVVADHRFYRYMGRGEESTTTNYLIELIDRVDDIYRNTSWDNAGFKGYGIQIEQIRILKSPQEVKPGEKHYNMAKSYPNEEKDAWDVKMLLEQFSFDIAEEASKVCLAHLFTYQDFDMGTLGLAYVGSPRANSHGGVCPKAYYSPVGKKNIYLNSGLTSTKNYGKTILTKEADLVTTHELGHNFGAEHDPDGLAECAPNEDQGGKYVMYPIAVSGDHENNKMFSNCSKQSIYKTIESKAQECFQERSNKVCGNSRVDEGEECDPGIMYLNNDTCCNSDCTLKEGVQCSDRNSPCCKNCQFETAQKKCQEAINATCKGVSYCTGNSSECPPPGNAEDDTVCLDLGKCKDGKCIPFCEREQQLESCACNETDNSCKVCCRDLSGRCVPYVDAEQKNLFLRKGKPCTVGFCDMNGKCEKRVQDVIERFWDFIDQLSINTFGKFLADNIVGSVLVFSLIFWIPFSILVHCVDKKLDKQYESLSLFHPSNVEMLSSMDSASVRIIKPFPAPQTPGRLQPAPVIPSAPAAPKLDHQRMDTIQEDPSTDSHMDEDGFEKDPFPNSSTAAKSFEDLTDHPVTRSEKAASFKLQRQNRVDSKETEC

[4] = molecular target: Collagenase 3 (Homo sapiens, UniProt P45452); experiment: Inhibitory concentration against Matrix metalloprotease-13 (MMP-13)
[5] = Inhibitory concentration against Aggrecanase
[6] = Percent inhibition against Aggrecanase at 500 nM

Compound	IC50 [1]	IC50 [2]	IC50 [3]	IC50 [4]	IC50 [5]	inhibition [6]
CC1(C)C[C@@H](O)CN(S(=O)(=O)c2ccc(OCc3ccc(Br)cc3)cc2)[C@H]1C(=O)NO	7700 nM	100 nM	10 nM	1.4 nM	> 100 nM	–
Cc1c(F)cccc1COc1ccc(S(=O)(=O)N2C[C@H](O)CC(C)(C)[C@@H]2C(=O)NO)cc1	2880 nM	679 nM	17 nM	4.3 nM	3.9 nM	–
Cc1cc(F)ccc1COc1ccc(S(=O)(=O)N2C[C@H](O)CC(C)(C)[C@@H]2C(=O)NO)cc1	5480 nM	255 nM	5.2 nM	3.5 nM	2.7 nM	–
CC(C)c1ccccc1COc1ccc(S(=O)(=O)N2C[C@H](O)CC(C)(C)[C@@H]2C(=O)NO)cc1	1800 nM	2300 nM	12 nM	188 nM	–	78%
CC1(C)C[C@@H](O)CN(S(=O)(=O)c2ccc(OCc3ccc(F)cc3Cl)cc2)[C@H]1C(=O)NO	10200 nM	592 nM	–	0.5 nM	–	–
CC1(C)C[C@@H](O)CN(S(=O)(=O)c2ccc(OCc3ccc(Cl)cc3Cl)cc2)[C@H]1C(=O)NO	31000 nM	430 nM	19 nM	3 nM	2.1 nM	–
Cc1cccc(COc2ccc(S(=O)(=O)N3C[C@H](O)CC(C)(C)[C@@H]3C(=O)NO)cc2)c1	25800 nM	773 nM	12 nM	2.8 nM	> 100 nM	–
Cc1cnsc1COc1ccc(S(=O)(=O)N2C[C@H](O)CC(C)(C)[C@@H]2C(=O)NO)cc1	4950 nM	–	16 nM	–	–	55%
Cc1ncccc1COc1ccc(S(=O)(=O)N2C[C@H](O)CC(C)(C)[C@@H]2C(=O)NO)cc1	2000 nM	–	6.7 nM	–	91 nM	–
CC1(C)C[C@@H](O)CN(S(=O)(=O)c2ccc(OCc3nccc4ccccc34)cc2)[C@H]1C(=O)NO	2420 nM	290 nM	10 nM	53 nM	> 100 nM	–
CC1(C)C[C@@H](O)CN(S(=O)(=O)c2ccc(OCc3ccnc4ccccc34)cc2)[C@H]1C(=O)NO	950 nM	170 nM	–	7.8 nM	15 nM	–
Cc1ccc(COc2ccc(S(=O)(=O)N3C[C@H](O)CC(C)(C)[C@@H]3C(=O)NO)cc2)cc1	19200 nM	198 nM	11 nM	1.2 nM	–	19%

Now from value to compound:

IC50 [1]	IC50 [2]	IC50 [3]	IC50 [4]	IC50 [5]	inhibition [6]	Compound
8900 nM	715 nM	11 nM	8 nM	16 nM	–	CC1(C)C[C@@H](O)CN(S(=O)(=O)c2ccc(OCc3ccccc3Br)cc2)[C@H]1C(=O)NO
10200 nM	1100 nM	–	19 nM	18 nM	–	CC1(C)C[C@@H](O)CN(S(=O)(=O)c2ccc(OCc3ccncc3Cl)cc2)[C@H]1C(=O)NO
1100 nM	1500 nM	6.7 nM	36 nM	67 nM	–	CCc1ccccc1COc1ccc(S(=O)(=O)N2C[C@H](O)CC(C)(C)[C@@H]2C(=O)NO)cc1
19000 nM	–	15 nM	–	–	57%	CC1(C)C[C@@H](O)CN(S(=O)(=O)c2ccc(OCc3cccc(Br)c3)cc2)[C@H]1C(=O)NO
5200 nM	–	12 nM	–	–	76%	Cc1nscc1COc1ccc(S(=O)(=O)N2C[C@H](O)CC(C)(C)[C@@H]2C(=O)NO)cc1
1400 nM	5100 nM	6.2 nM	2.1 nM	145 nM	–	Cc1ccc(F)cc1COc1ccc(S(=O)(=O)N2C[C@H](O)CC[C@@H]2C(=O)NO)cc1
3450 nM	790 nM	7.3 nM	6.5 nM	40 nM	–	Cc1ccc(F)cc1COc1ccc(S(=O)(=O)N2C[C@H](O)CC(C)(C)[C@@H]2C(=O)NO)cc1
4900 nM	690 nM	7.3 nM	14 nM	38 nM	–	Cc1ccccc1COc1ccc(S(=O)(=O)N2C[C@H](O)CC(C)(C)[C@@H]2C(=O)NO)cc1
